Source: patent publication US8343475B2, “Small cationic antimicrobial peptides” (priority 2006, dated 2013)
In brackets after ≈: the same amount, converted by molar mass. Residues, ends and D or L forms follow the SMILES beside them.

Columns and labels:
[1] = tested on: MCP-1 release by human PBMC; assay: Chemokine induction in PBMC (capture ELISA); assay type: cell-based; conditions: background (204) subtracted
Description: FIG. 15. Induction of MCP-1 release by 7.5×10^5 human PBMC in response to treatment with 20 or 100 μg/ml of different peptides for 24 hours.
(§1) Venous blood (20 ml) from healthy volunteers was collected in Vacutainer® collection tubes containing sodium heparin as an anticoagulant (Becton Dickinson, Mississauga, ON) in accordance with UBC ethical approval and guidelines. Blood was diluted 1:1 with complete RPMI 1640 medium and separated by centrifugation over a Ficoll-Paque® Plus (Amersham Biosciences, Piscataway, N.J., USA) density gradient. White blood cells were isolated from the buffy coat, washed twice in RPMI 1640 complete medium, and the number of peripheral blood mononuclear cells (PBMC) was determined by trypan blue exclusion. PBMC (5×10^5) were seeded into 12-well tissue culture dishes (Falcon; Becton Dickinson) at 0.75 to 1×10^6 cells/ml at 37° C. in 5% CO2. The above conditions were chosen to mimic conditions for circulating blood monocytes entering tissues at the site of infection via extravasation.
(§2) Following incubation of the cells under various treatment regimens, the tissue culture supernatants were centrifuged at 1000×g for 5 min, then at 10,000×g for 2 min to obtain cell-free samples. Supernatants were aliquoted and then stored at −20° C. prior to assay for various chemokines by capture ELISA (eBioscience and BioSource International Inc., CA, USA respectively)

[2] = tested on: Pseudomonas aeruginosa PAO1 strain H103; assay type: cell-based
Outline: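 Modified broth microdilution MIC in Mueller Hinton medium, peptides diluted in 0.01% acetic acid/0.2% BSA, polypropylene plates. Inoculum 2-7×10^5 CFU/ml, overnight at 37 °C; MIC is the lowest concentration with no visible growth.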

ESBL E. cloacae = assay type: cell-based, Enterobacter cloacae
Description: (§3) Minimal inhibitory concentration (MIC) determination. The MIC of the peptides were measured using a modified broth microdilution method in Mueller Hinton (MH) medium (Wu M, Hancock R E W. 1999. Interaction of the cyclic antimicrobial cationic peptide bactenecin with the outer and cytoplasmic membrane. J Biol Chem 274, 29-35). Briefly, the peptides were dissolved and stored in glass vials. The assay was performed in sterile 96-well polypropylene microtitre plates were used. Serial dilutions of the peptides to be assayed were performed in 0.01% acetic acid (Fisher) containing 0.2% bovine serum albumin (Boehringer Mannheim GmbH) at 10× the desired final concentration. Ten microlitres of the 10× peptides were added to each well of a 96-well polypropylene plate containing 90 μl of MH media per well. Bacteria were added to the plate from an overnight culture at 2-7×10^5 colony forming units/ml and incubated over night at 37° C. The MIC was taken as the concentration at which no growth was observed.
(§4) All peptides derived from the 1st, 2nd, and 3rd quartiles were further evaluated for their antibacterial activities against several highly antibitoic resistant pathogens (Table 3). These included clinical isolates of MRSA, ESBL E. cloacae, and multidrug resistant Pseudomonas strains including Brazilian clinical isolates of P. aeruginosa that are resistant to meropenem, ceftazidime, piperacillin/tazobactam, ciprofloxacin, cefepime and polymyxin B, and the Liverpool Epidemic Strains. […] Such results characterize the developed peptides as excellent antibiotic candidates, providing new means for treating most dangerous and severe forms of human infections.

[3] = tested on: MCP-3 release by human PBMC; assay: Chemokine induction in PBMC (capture ELISA); assay type: cell-based; conditions: background (6) subtracted
Description: FIG. 16. Induction of MCP3 release by 7.5×10^5 human PBMC in response to treatment with 20 or 100 μg/ml of different peptides for 24 hours.
as §1, §2

[4] = tested on: CXCL1 (Gro-α) release by human PBMC; assay: Chemokine induction in PBMC (capture ELISA); assay type: cell-based; conditions: background (196) subtracted
Description: FIG. 17. Induction of CXCL1 (Gro-α) release by 7.5×10^5 human PBMC in response to treatment with 20 or 100 μg/ml of different peptides for 24 hours.
as §1, §2

[5] = tested on: multidrug resistant Pseudomonas maltophilia ATCC13637; assay type: cell-based
Description: as §3
(§5) The selected peptides were synthesized and assayed against several major antibiotic-resistant pathogens. Initially, the peptides were screened against the laboratory strain of P. aeruginosa PAO1 to compare the results with the training data. […] The antibacterial activity in the form of minimal inhibitory concentration (MIC) of the other studied peptides was assessed in greater depth (Table 9) against many highly antibiotic resistanct pathogens.

[6] = tested on: ESBL Klebsiella pneumonia clinical strain 63575; assay type: cell-based
Description: as §3, §5

[7] = tested on: ESBL E. coli clinical strain 64771; assay type: cell-based; conditions: ESBL clinical strain 64771
Description: as §3, §5

[8] = tested on: Liverpool Epidemic Strains; assay type: cell-based, Pseudomonas aeruginosa
Description: as §3, §4

[9] = tested on: clinical isolates of MRSA; assay type: cell-based, Staphylococcus aureus
Description: as §3, §4

[10] = tested on: Enterococcus faecalis ATCC29212; assay type: cell-based; conditions: ATCC29212
Description: as §3
(§6) Strains. For the killing assay a mini-Tn5-lux mutant in Pseudomonas aeruginosa H103 was used. The strain is called H1001 and contains a fliC::luxCDABE transcriptional fusion resulting in constitutive expression of luciferase. The bacterial strains used for the antimicrobial activity assays included Escherichia coli UB1005 (F-, nalA37, metB1), a wild-type Salmonella enterica ssp. typhimurium (S. typhimurium), wild-type Pseudomonas aeruginosa PAO1 strain H103, Enterococcus faecalis ATCC29212, Staphylococcus aureus ATCC25923, and a clinical isolate of Staphylococcus epidermidis obtained from Dr. D. Speert (Department of Medicine, University of British Columbia). Antifungal activity was tested using a lab isolate of Candida albicans obtained from Dr. B. Dill (Department of Microbiology and Immunology, University of British Columbia).

[11] = tested on: Staphylococcus aureus ATCC25923; assay type: cell-based; conditions: ATCC25923
Description: as §3, §6

[12] = tested on: lab isolate of Candida albicans; assay type: cell-based; conditions: lab isolate of
Description: as §3, §6

[13] = tested on: wild-type Salmonella enterica ssp. typhimurium; assay type: cell-based
Description: as §3, §6

Escherichia coli UB1005 = assay type: cell-based; conditions: UB1005
Description: as §3, §6

[14] = tested on: clinical isolate of Staphylococcus epidermidis; assay type: cell-based; conditions: clinical isolate of
Description: as §3, §6

SMILES | Chemokine induction MCP-1 ([1]; 20 μg/ml peptide) [pg/mL] | Chemokine induction MCP-1 ([1]; 100 μg/ml peptide) [pg/mL] | MIC against P. aeruginosa PAO1 ([2]; PAO1) [µM] | MIC (ESBL E. cloacae) [µM] | Chemokine induction MCP-3 ([3]; 20 μg/ml peptide) [pg/mL] | Chemokine induction MCP-3 ([3]; 100 μg/ml peptide) [pg/mL] | Chemokine induction Gro-α ([4]; 20 μg/ml peptide) [pg/mL] | Chemokine induction Gro-α ([4]; 100 μg/ml peptide) [pg/mL] | MIC [5] [µM] | MIC [6] [µM] | MIC [7] [µM] | MIC [8] [µM] | MIC [9] [µM] | MIC [10] [µM] | MIC [11] [µM] | other results
CC[C@H](C)[C@H](N)C(=O)N[C@@H](Cc1c[nH]c2ccccc12)C(=O)N[C@@H](Cc1c[nH]c2ccccc12)C(=O)N[C@@H](CCCCN)C(=O)N[C@@H](Cc1c[nH]c2ccccc12)C(=O)N[C@@H](CCCNC(=N)N)C(=O)N[C@@H](CCCNC(=N)N)C(=O)N[C@@H](Cc1c[nH]c2ccccc12)C(=O)N[C@H](C(N)=O)C(C)C [HHC77, IWWKWRRWV] (H-IWWKWRRWV-NH2; N-terminus assumed) | 98 | 4548 | 4 to 12 | 6 (≈ 8.49 µg/mL) | 0 | 23 | -22 | 50 | 1.5 (≈ 2.12 µg/mL) | 12 (≈ 17 µg/mL) | 6 (≈ 8.49 µg/mL) | 6 (≈ 8.49 µg/mL) | 3 (≈ 4.24 µg/mL) | 24 (≈ 34 µg/mL) | 3 (≈ 4.24 µg/mL) | –
CC[C@H](C)[C@H](NC(=O)[C@@H](N)CCCCN)C(=O)N[C@@H](Cc1c[nH]c2ccccc12)C(=O)N[C@@H](Cc1c[nH]c2ccccc12)C(=O)N[C@@H](Cc1c[nH]c2ccccc12)C(=O)N[C@@H](Cc1c[nH]c2ccccc12)C(=O)N[C@@H](CCCNC(=N)N)C(=O)N[C@@H](CCCCN)C(=O)N[C@@H](CCCNC(=N)N)C(N)=O [HHC8, KIWWWWRKR] (H-KIWWWWRKR-NH2; N-terminus assumed) | 68 | 835 | – | 94 (≈ 136 µg/mL) | 1 | 4 | 9 | -11 | 3 (≈ 4.33 µg/mL) | 47 (≈ 67.9 µg/mL) | 6 (≈ 8.66 µg/mL) | 5.9 (≈ 8.52 µg/mL) | 6 (≈ 8.66 µg/mL) | 24 (≈ 34.7 µg/mL) | 6 (≈ 8.66 µg/mL) | –
CC(C)[C@H](NC(=O)[C@H](CCCNC(=N)N)NC(=O)[C@H](CCCCN)NC(=O)[C@@H](NC(=O)[C@H](Cc1ccccc1)NC(=O)[C@H](CCCCN)NC(=O)[C@H](Cc1c[nH]c2ccccc12)NC(=O)[C@@H](NC(=O)[C@H](C)N)C(C)C)C(C)C)C(N)=O [HHC123, AVWKFVKRV] (H-AVWKFVKRV-NH2; N-terminus assumed) | 46 | 204 | – | >240 | 0 | 3 | -25 | 17 | 60 (≈ 67.9 µg/mL) | >240 | 120 (≈ 136 µg/mL) | 120 (≈ 136 µg/mL) | 240 (≈ 272 µg/mL) | >240 | 240 (≈ 272 µg/mL) | antimicrobial activity against P. aeruginosa PAO1 (in words) ([2]; laboratory strain P. aeruginosa PAO1): did not return any generally active substances
N=C(N)NCCC[C@H](NC(=O)[C@H](CCCNC(=N)N)NC(=O)[C@@H](N)Cc1ccccc1)C(=O)N[C@@H](Cc1c[nH]c2ccccc12)C(=O)N[C@@H](Cc1c[nH]c2ccccc12)C(=O)N[C@@H](CCCCN)C(=O)N[C@@H](Cc1c[nH]c2ccccc12)C(=O)N[C@@H](Cc1ccccc1)C(=O)N[C@@H](CCCCN)C(N)=O [HHC53, FRRWWKWFK] (H-FRRWWKWFK-NH2; N-terminus assumed) | -26 | 391 | 4 to 12 | 24 (≈ 34.5 µg/mL) | -1 | 5 | -23 | 2 | 0.8 (≈ 1.15 µg/mL) | 24 (≈ 34.5 µg/mL) | 6 (≈ 8.63 µg/mL) | 1.5 (≈ 2.16 µg/mL) | 3 (≈ 4.32 µg/mL) | 24 (≈ 34.5 µg/mL) | 1.5 (≈ 2.16 µg/mL) | –
CC[C@H](C)[C@H](NC(=O)[C@H](Cc1c[nH]c2ccccc12)NC(=O)[C@H](CCCCN)NC(=O)[C@@H](N)CCCNC(=N)N)C(=O)N[C@@H](Cc1c[nH]c2ccccc12)C(=O)N[C@@H](CCCNC(=N)N)C(=O)N[C@@H](Cc1c[nH]c2ccccc12)C(=O)N[C@@H](Cc1ccccc1)C(=O)N[C@@H](CC(C)C)C(N)=O [HHC75, RKWIWRWFL] (H-RKWIWRWFL-NH2; N-terminus assumed) | 1313 | 6140 | 4 to 12 | 3 (≈ 4.17 µg/mL) | 34 | 322 | 554 | 1683 | 1.5 (≈ 2.08 µg/mL) | 3.1 (≈ 4.31 µg/mL) | 1.5 (≈ 2.08 µg/mL) | 1.5 (≈ 2.08 µg/mL) | 3 (≈ 4.17 µg/mL) | 6 (≈ 8.34 µg/mL) | 31 (≈ 43.1 µg/mL) | –
CC[C@H](C)[C@H](NC(=O)[C@H](CCCNC(=N)N)NC(=O)[C@H](Cc1ccccc1)NC(=O)[C@H](CCC(N)=O)NC(=O)[C@@H](N)CCCCN)C(=O)N[C@@H](CCCNC(=N)N)C(=O)N[C@H](C(=O)N[C@@H](CCCNC(=N)N)C(=O)N[C@H](C(=O)N[C@H](C(=O)N[C@@H](CCCNC(=N)N)C(=O)N[C@@H](CCCCN)C(N)=O)[C@@H](C)CC)C(C)C)C(C)C [HH12, KQFRIRVRVIRK] (H-KQFRIRVRVIRK-NH2; N-terminus assumed) | 1649 | 635 | – | – | 91 | 21 | 773 | 172 | – | – | – | – | – | – | – | MIC P. aerug ([2]; PAO1): 6 µg/mL (≈ 3.75 µM); MIC C. albicans [12]: 6 µg/mL (≈ 3.75 µM); MIC S. typhi [13]: 6 µg/mL (≈ 3.75 µM); MIC E. faecalis [10]: 25 µg/mL (≈ 15.6 µM); MIC E. coli (Escherichia coli UB1005): 3 µg/mL (≈ 1.88 µM); MIC S. aureus [11]: 12 µg/mL (≈ 7.51 µM); MIC S. epi. [14]: 1.6 µg/mL (≈ 1 µM)
